The source of these data is patent US9796700B2 (Celgene CAR LLC, priority 2013, dated 2017).

This assay concerns the target Erk1 (Homo sapiens (Human), UniProt P27361). The assay can be described thus: Protein Mass Modification Assay (intact protein MALDI). The class given is binding. A digest of the protocol:
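Percent covalent modification comes from the intact-protein MALDI centroid mass shift, treated versus control, divided by compound MW. Before analysis, human Erk1 was exposed to compound at 10-fold excess over protein for 60 min at room temperature.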

Each structure is given as a SMILES string.

Chain of Erk1 (P27361 whole entry, looked up): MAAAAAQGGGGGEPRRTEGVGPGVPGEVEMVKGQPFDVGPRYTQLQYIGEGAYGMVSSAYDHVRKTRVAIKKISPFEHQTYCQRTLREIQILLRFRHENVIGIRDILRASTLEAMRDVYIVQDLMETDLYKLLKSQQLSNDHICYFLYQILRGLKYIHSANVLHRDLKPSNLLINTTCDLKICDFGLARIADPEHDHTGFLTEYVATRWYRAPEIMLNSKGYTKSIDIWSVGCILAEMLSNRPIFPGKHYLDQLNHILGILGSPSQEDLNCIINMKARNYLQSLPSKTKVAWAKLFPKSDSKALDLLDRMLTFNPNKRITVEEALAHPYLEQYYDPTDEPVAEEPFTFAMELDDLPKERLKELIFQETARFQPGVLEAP

Turning to `CC(=O)N1CCC[C@H](Nc2ncc(C(F)(F)F)c(Nc3ccccc3NC(=O)CCl)n2)C1` [Compound I-30, (S)—N-(2-((2-((1-Acetylpiperidin-3-yl)amino)-5-(trifluoromethyl)pyrimidin-4-yl)amino)phenyl)-2-chloroacetamide], the “ERK1 Mass Mod (%)” value was “G (proived a mass modification ≦30%)”.

As for `C=CC(=O)Nc1ccccc1Nc1nc(Nc2cc(OC)nc(N3CCCCC3)c2)ncc1C(F)(F)F` [Compound I-282, N-(2-((2-((2-Methoxy-6-(piperidin-1-yl)pyridin-4-yl)amino)-5-(trifluoromethyl)pyrimidin-4-yl)amino)phenyl)acrylamide], the “ERK1 Mass Mod (%)” value is reported as “E (provided a mass modification of ≧70%)”.

As to `C#CC(=O)N[C@@H]1CCCC[C@H]1Nc1nc(N[C@H]2CCCN(C(=O)CO)C2)ncc1C(F)(F)F` [Compound I-34, N-((1R,2R)-2-((2-(((S)-1-(2-Hydroxyacetyl)piperidin-3-yl)amino)-5-(trifluoromethyl)pyrimidin-4-yl)amino)cyclohexyl)propiolamide], the “ERK1 Mass Mod (%)” value is “F (provided a mass modification of 31-69%)”.

As for `C=CC(=O)Nc1ccccc1Nc1nc(NC2CCN(C(C)=O)CC2)ncc1C(F)(F)F` [Compound I-12, N-(2-((2-((1-acetylpiperidin-4-yl)amino)-5-(trifluoromethyl)pyrimidin-4-yl)amino)phenyl)acrylamide], the “ERK1 Mass Mod (%)” value is listed as “E (provided a mass modification of ≧70%)”.

Consider `C=CC(=O)Nc1ccccc1Nc1nc(N[C@@H]2CCC[C@H](C(=O)NOCCO)C2)ncc1Cl` (racemic) [Compound I-103, Rac-3-((4-((2-acrylamidophenyl)amino)-5-chloropyrimidin-2-yl)amino)-N-(2-hydroxyethoxy)-cis-cyclohexanecarboxamide], for which the “ERK1 Mass Mod (%)” value is listed as “E (provided a mass modification of ≧70%)”.

As for `C=CC(=O)Nc1cc(C)ccc1Nc1nc(Nc2cc(OC)ccc2C)ncc1C(F)(F)F` [Compound I-341, N-(2-((2-((5-methoxy-2-methylphenyl)amino)-5-(trifluoromethyl)pyrimidin-4-yl)amino)-5-methylphenyl)acrylamide], the “ERK1 Mass Mod (%)” value is recorded as “E (provided a mass modification of ≧70%)”.

With `C=CC(=O)Nc1ccccc1Nc1nc(N[C@H]2CC[C@H](C(N)=O)CC2)ncc1Cl` [Compound I-129, trans-4-((4-((2-acrylamidophenyl)amino)-5-chloropyrimidin-2-yl)amino)-cyclohexanecarboxamide], the “ERK1 Mass Mod (%)” value was “E (provided a mass modification of ≧70%)”.

`C=CC(=O)N(C)c1ccccc1Nc1nc(Nc2cc(C(N)=O)ccc2C#N)ncc1Cl` [Compound I-196, 3-((5-chloro-4-((2-(N-methylacrylamido)phenyl)amino)pyrimidin-2-yl)amino)-4-cyanobenzamide]: the “ERK1 Mass Mod (%)” value was “E (provided a mass modification of ≧70%)”.

With `CC(=O)N1CCC[C@H](Nc2ncc(C(F)(F)F)c(N[C@H]3[C@@H](C(N)=O)[C@@H]4C=C[C@H]3C4)n2)C1` [Compound I-308, (1S,2S,3R,4R)-3-((2-(((S)-1-acetylpiperidin-3-yl)amino)-5-(trifluoromethyl)pyrimidin-4-yl)amino)bicyclo[2.2.1]hept-5-ene-2-carboxamide], the “ERK1 Mass Mod (%)” value was “G (proived a mass modification ≦30%)”.

For `C=CC(=O)Nc1ccccc1Nc1nc(Nc2ccc(F)cc2OC)ncc1Cl` [Compound I-210, N-(2-((5-chloro-2-((4-fluoro-2-methoxyphenyl)amino)pyrimidin-4-yl)amino)phenyl)acrylamide], the “ERK1 Mass Mod (%)” value was “F (provided a mass modification of 31-69%)”.

As for `C=CC(=O)Nc1ccccc1Nc1nc(N[C@H]2CCCN(C(=O)C(C)=O)C2)ncc1C(F)(F)F` [Compound I-49, (S)—N-(2-((2-((1-(2-Oxopropanoyl)piperidin-3-yl)amino)-5-(trifluoromethyl)pyrimidin-4-yl)amino)phenyl)acrylamide], the “ERK1 Mass Mod (%)” value is listed as “E (provided a mass modification of ≧70%)”.

Turning to `C=CC(=O)Nc1cc(C)ccc1Nc1nc(Nc2cc(C(C)=O)ccc2C)ncc1Cl` [Compound I-239, N-(2-((2-((5-acetyl-2-methylphenyl)amino)-5-chloropyrimidin-4-yl)amino)-5-methylphenyl)acrylamide], the “ERK1 Mass Mod (%)” value was “E (key: E: provided a mass modification of ≧70%; F: provided a mass modification of 31-69%; G: proived a mass modification ≦30%)”.

Take `C=CC(=O)Nc1ccccc1Nc1nc(Nc2cc(C(=O)O)ccc2C)ncc1Cl` [Compound I-225, 3-((4-((2-acrylamidophenyl)amino)-5-chloropyrimidin-2-yl)amino)-4-methylbenzoic acid]: the “ERK1 Mass Mod (%)” value is reported as “F (provided a mass modification of 31-69%)”.

With `C=CC(=O)Nc1ccccc1Nc1nc(Nc2ccc(N(CCCN)C(C)=O)cc2OC)ncc1Cl` [Compound I-167, N-(2-((2-((4-(N-(3-aminopropyl)acetamido)-2-methoxyphenyl)amino)-5-chloropyrimidin-4-yl)amino)phenyl)acrylamide], the “ERK1 Mass Mod (%)” value is reported as “E (provided a mass modification of ≧70%)”.

Regarding `C=CC(=O)Nc1ccccc1Nc1nc(Nc2ccc(N3CCOCC3)cc2OC)ncc1C(F)(F)F` [Compound I-65, N-(2-((2-((2-Methoxy-4-morpholinophenyl)amino)-5-(trifluoromethyl)pyrimidin-4-yl)amino)phenyl)acrylamide], the “ERK1 Mass Mod (%)” value is given as “E (provided a mass modification of ≧70%)”.

As for `C=CC(=O)Nc1ccccc1Nc1nc(N[C@H]2CCN(C(=O)CO)C2)ncc1C(F)(F)F` [Compound I-57, (S)—N-(2-((2-((1-(2-Hydroxyacetyl)pyrrolidin-3-yl)amino)-5-(trifluoromethyl)pyrimidin-4-yl)amino)phenyl)acrylamide], the “ERK1 Mass Mod (%)” value was “F (provided a mass modification of 31-69%)”.

With `C=CC(=O)Nc1ccccc1Nc1nc(Nc2ccc(F)cc2C)ncc1Cl` [Compound I-209, N-(2-((5-chloro-2-((4-fluoro-2-methylphenyl)amino)pyrimidin-4-yl)amino)phenyl)acrylamide], the “ERK1 Mass Mod (%)” value was “F (provided a mass modification of 31-69%)”.

Turning to `C=CC(=O)Nc1ccccc1Nc1nc(N[C@H]2CCC[C@@H](CO)C2)ncc1Cl` (racemic) [Compound I-121, Rac-cis-N-(2-((5-chloro-2-((3-(hydroxymethyl)cyclohexyl)amino)pyrimidin-4-yl)amino)phenyl)acrylamide], the “ERK1 Mass Mod (%)” value is “E (key: E: provided a mass modification of ≧70%; F: provided a mass modification of 31-69%; G: proived a mass modification ≦30%)”.

For the compound `C=CC(=O)Nc1ccccc1Nc1nc(Nc2cc(OC)cc(OC)c2)ncc1C(F)(F)F` [Compound I-338, N-(2-((2-((3,5-dimethoxyphenyl)amino)-5-(trifluoromethyl)pyrimidin-4-yl)amino)phenyl)acrylamide], the “ERK1 Mass Mod (%)” value is reported as “E (provided a mass modification of ≧70%)”.

In the case of `C=CC(=O)Nc1cc(C)ccc1Nc1nc(Nc2cc(NC3CC3)nc(OC)c2)ncc1C(F)(F)F` [Compound I-337, N-(2-((2-((2-(cyclopropylamino)-6-methoxypyridin-4-yl)amino)-5-(trifluoromethyl)pyrimidin-4-yl)amino)-5-methylphenyl)acrylamide], the “ERK1 Mass Mod (%)” value is “E (provided a mass modification of ≧70%)”.
